Measurements as given in ChEMBL document CHEMBL1201862, “PubChem BioAssay data set” (2004).
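Cultured in 96-well plates, cells were exposed to test compound for 48 hours across five concentrations. GI50: concentration for 50% inhibition of growth.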 Calls of active or inactive are those of the source. Cut-off read from the data, not from the text of the source: active = GI50 up to about 1.1 µM and inactive = higher.

Key:
Experiment in all cases: DTP human tumour cell line panel, 48 h
[1] = test system: PC-3
[2] = test system: NCI-H23
[3] = test system: OVCAR-4
[4] = test system: NCI/ADR-RES
[5] = test system: U-251
[6] = test system: HCT-15
[7] = test system: NCI-H226
[8] = test system: KM12
[9] = test system: EKVX
[10] = test system: RPMI-8226
[11] = test system: HCT-116
[12] = test system: SK-MEL-28
[13] = test system: A498
[14] = test system: M14
[15] = test system: MOLT-4
[16] = test system: LOX IMVI
[17] = test system: OVCAR-5
[18] = test system: Malme-3M
[19] = test system: MDA-MB-435

Compound	GI50 [1]	GI50 [2]	GI50 [3]	GI50 [4]	GI50 [5]	GI50 [6]	GI50 [7]	GI50 [8]	GI50 [9]	GI50 [10]	GI50 [11]	GI50 [12]	GI50 [13]	GI50 [14]	GI50 [15]	GI50 [16]	GI50 [17]	GI50 [18]	GI50 [19]
O=C1C(F)=CC(COC(c2ccccc2)(c2ccccc2)c2ccccc2)OC1n1cc(F)c(=O)[nH]c1=O (stereo not drawn)	1.71 µM (inactive)	1.77 µM (inactive)	3.99 µM (inactive)	2.04 µM (inactive)	1.36 µM (inactive)	1.67 µM	1.83 µM (inactive)	1.91 µM (inactive)	7.89 µM (inactive)	0.413 µM (active)	2.77 µM (inactive)	1.62 µM (inactive)	8.79 µM (inactive)	1.83 µM (inactive)	0.8 µM (active)	0.533 µM (active)	2.14 µM (inactive)	3.33 µM (inactive)	0.746 µM (active)
CCc1cccc(C(C)C)c1C1C(=O)C(=O)N(c2nc3ccccc3s2)C(=O)C1=O		> 100 µM (inactive)	> 100 µM (inactive)		> 100 µM (inactive)	> 100 µM	> 100 µM (inactive)	> 100 µM (inactive)	> 100 µM (inactive)	> 100 µM (inactive)	> 100 µM (inactive)	> 100 µM (inactive)	> 100 µM (inactive)	> 100 µM (inactive)	> 100 µM (inactive)	> 100 µM (inactive)	> 100 µM (inactive)	> 100 µM (inactive)	
Cc1ccc(NC(=O)C(=O)C(C#N)c2ccccc2C)cc1C (stereo not drawn)		> 100 µM (inactive)	> 100 µM (inactive)		> 77.3 µM (inactive)	> 42.4 µM	> 100 µM (inactive)	> 100 µM (inactive)	> 100 µM (inactive)	> 57.8 µM (inactive)	> 44.5 µM (inactive)	> 100 µM (inactive)	> 100 µM (inactive)	> 100 µM (inactive)	> 100 µM (inactive)	> 41.2 µM (inactive)	> 100 µM (inactive)	> 100 µM (inactive)	
O=C1C[C@H](c2ccc(O)c(O)c2)Oc2cc(O)cc(O)c21		> 100 µM (inactive)	> 100 µM (inactive)		82.4 µM (inactive)	> 100 µM	> 100 µM (inactive)	78.2 µM (inactive)	83.8 µM (inactive)	> 100 µM (inactive)	> 100 µM (inactive)	90.6 µM (inactive)	> 100 µM (inactive)	> 100 µM (inactive)	74.5 µM (inactive)	> 100 µM (inactive)	> 100 µM (inactive)	87.1 µM (inactive)	
O=C(OCc1nc2ccc(Br)cc2c(=O)n1-c1ccccc1)c1ccccc1O		37.3 µM (inactive)	34.1 µM (inactive)		> 100 µM (inactive)		57.5 µM (inactive)	> 100 µM (inactive)	66.1 µM (inactive)	29.4 µM (inactive)	> 100 µM (inactive)	> 100 µM (inactive)	58.3 µM (inactive)	> 100 µM (inactive)	37.9 µM (inactive)	> 100 µM (inactive)	> 100 µM (inactive)	> 100 µM (inactive)	
Cc1ccc(-n2cc(-c3ccc(Cl)cc3)c(C#N)c2N)cc1	12.6 µM (inactive)	15.7 µM (inactive)	14.3 µM (inactive)	17.3 µM (inactive)	14.2 µM (inactive)	12.1 µM	12.8 µM (inactive)		15.2 µM (inactive)		14 µM (inactive)	18.1 µM (inactive)	18.4 µM (inactive)	15.3 µM (inactive)		15 µM (inactive)	15.1 µM (inactive)	18 µM (inactive)	17.3 µM (inactive)
CCOC(=O)C1=CN=C2C(=O)N(c3ccccc3)N(C)C2(C)C1=N (stereo not drawn)	> 100 µM (inactive)	> 100 µM (inactive)	> 100 µM (inactive)	> 100 µM (inactive)	> 100 µM (inactive)	> 100 µM	> 100 µM (inactive)	> 100 µM (inactive)	> 100 µM (inactive)	> 100 µM (inactive)	> 100 µM (inactive)	> 100 µM (inactive)	> 100 µM (inactive)	> 100 µM (inactive)		> 100 µM (inactive)	> 100 µM (inactive)	> 100 µM (inactive)	> 100 µM (inactive)
CC(=O)C1=C(C)NC2C=CC=CN12 (stereo not drawn)		> 100 µM (inactive)	> 100 µM (inactive)		> 100 µM (inactive)	> 100 µM	> 100 µM (inactive)	> 100 µM (inactive)	> 100 µM (inactive)	> 100 µM (inactive)	> 100 µM (inactive)	> 100 µM (inactive)	> 100 µM (inactive)	> 100 µM (inactive)	> 100 µM (inactive)	> 100 µM (inactive)	> 100 µM (inactive)	> 100 µM (inactive)	
CCOC(=O)NC(=O)c1cn(CCCOC(=O)CCCCCCCCCCC(=O)OCCCn2cc(C(=O)NC(=O)OCC)c(=O)n(C)c2=O)c(=O)n(C)c1=O		> 100 µM (inactive)	> 100 µM (inactive)		> 100 µM (inactive)	> 100 µM	> 100 µM (inactive)	> 100 µM (inactive)	> 100 µM (inactive)	> 100 µM (inactive)	> 100 µM (inactive)	> 100 µM (inactive)	> 100 µM (inactive)	> 100 µM (inactive)	> 100 µM (inactive)	> 100 µM (inactive)	> 100 µM (inactive)	> 100 µM (inactive)	
N#CC(/C(CCCC(=O)Nc1cccc([N+](=O)[O-])c1)=N/NC(=O)c1cc2ccccc2cc1O)c1ccccc1 (stereo not drawn)		20 µM (inactive)	31.1 µM (inactive)		34.6 µM (inactive)	17.9 µM	> 100 µM (inactive)	62.2 µM (inactive)	23.2 µM (inactive)	35.4 µM (inactive)	35.6 µM (inactive)	> 100 µM (inactive)	35.3 µM (inactive)	16.3 µM (inactive)	14.6 µM (inactive)	16.4 µM (inactive)	36.5 µM (inactive)	67.1 µM (inactive)	
CNC(=S)/N=c1/sc(NC)nc2sc3c(c12)CCCC3	> 100 µM (inactive)	> 100 µM (inactive)	> 100 µM (inactive)		35.4 µM (inactive)	> 100 µM	> 100 µM (inactive)	> 100 µM (inactive)	76.6 µM (inactive)	> 100 µM (inactive)	> 100 µM (inactive)	> 100 µM (inactive)	> 100 µM (inactive)		> 100 µM (inactive)	> 100 µM (inactive)	> 100 µM (inactive)	> 100 µM (inactive)	> 100 µM (inactive)
Nc1nc(Cl)cc(OCC2(CO)CC=CC2)n1	> 100 µM (inactive)	> 100 µM (inactive)	> 100 µM (inactive)	> 100 µM (inactive)	46.2 µM (inactive)	> 100 µM	> 100 µM (inactive)		> 100 µM (inactive)	> 100 µM (inactive)	> 100 µM (inactive)	> 100 µM (inactive)	90.6 µM (inactive)		> 100 µM (inactive)	> 100 µM (inactive)	> 100 µM (inactive)	> 100 µM (inactive)	> 100 µM (inactive)
